The subject of data set [1] is hepatic pioglitazone metabolism. The conditions noted are these: in vitro, molar concentration equal to pioglitazone; cited from earlier work.
For data set [2], the target named is T1, serum proteins, particularly serum albumin (Homo sapiens, UniProt P02768).
T1 construct: host or cells: serum
The conditions noted are these: serum albumin; cited from earlier work.

The test system of data set [3] is animal models of diabetes. As to conditions: animal models of type 2 diabetes; cited from earlier work.
In data set [4] the test system is individuals diagnosed with DM2 and obesity. Kind of data set: Example 1: multicentric, randomized, double blind placebo-controlled trial, 8 weeks. The class given is in vivo, patients. The method, then: A multicentric, randomized, double blind placebo-controlled trial was conducted. In which 600 individuals diagnosed with DM2 and obesity with a BMI higher than 35 kg/m^2 were included.

Data set [5] has as its system patients diagnosed with DM2 and obesity. In words: Example 2: multicentric, randomized, double blind placebo-controlled trial, 12 weeks. The class given is in vivo. As to conditions: compared to levels at admission. On the procedure: A multicentric, randomized, double blind placebo-controlled trial was conducted. In which 300 patients diagnosed with DM2 and obesity were included. The object of the study was to establish the reduction in lipid profile and in overweight.

Another data set relates to lipid metabolism. As to conditions: therapeutic doses, short and long term clinical studies; cited from earlier work.
For data set [6] the following is noted: cited from earlier work.
For a further data set, the system named is P-450 activity. As to conditions: incubated with human P-450 liver microsomes; cited from earlier work.
The subject of data set [7] is serum proteins, particularly serum albumin. The conditions noted are these: human; cited from earlier work.
For data set [8] the following is noted: cited from earlier work. This is another data set of the same source.

Where two headings read alike, the source gives them in different places.

T1 sequence (P02768 25-609): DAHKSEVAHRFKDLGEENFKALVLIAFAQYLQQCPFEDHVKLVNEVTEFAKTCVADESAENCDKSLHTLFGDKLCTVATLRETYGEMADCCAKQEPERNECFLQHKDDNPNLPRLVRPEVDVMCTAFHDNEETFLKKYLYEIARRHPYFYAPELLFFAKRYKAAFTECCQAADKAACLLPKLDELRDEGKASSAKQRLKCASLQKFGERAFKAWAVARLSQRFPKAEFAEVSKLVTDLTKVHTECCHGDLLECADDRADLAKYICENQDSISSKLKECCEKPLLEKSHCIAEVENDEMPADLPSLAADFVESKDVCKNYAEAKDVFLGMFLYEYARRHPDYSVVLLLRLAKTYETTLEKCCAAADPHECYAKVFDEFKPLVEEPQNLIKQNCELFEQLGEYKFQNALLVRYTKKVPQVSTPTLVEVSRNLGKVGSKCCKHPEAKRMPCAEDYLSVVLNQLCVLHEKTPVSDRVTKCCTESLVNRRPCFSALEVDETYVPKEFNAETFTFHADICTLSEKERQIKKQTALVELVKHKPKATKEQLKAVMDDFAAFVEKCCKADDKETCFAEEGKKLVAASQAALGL

For the molecule `CC(=O)N1CCN(c2ccc(OCC3COC(Cn4ccnc4)(c4ccc(Cl)cc4Cl)O3)cc2)CC1` (centres unmarked) [Ketoconazole], the “inhibition of hepatic pioglitazone metabolism” value in [1] is recorded as “up to 85%”.

As for `CC(=O)c1ccc(CCOc2ccc(CC3SC(=O)NC3=O)cc2)nc1` (centres unmarked) [M-III], the “bound to serum albumin” value in data set [2] is reported as over 98%. In addition, the pharmacological activity result in data set [3] is reported as “pharmacologically active”.

For the molecule `CC(O)c1ccc(CCOc2ccc(CC3SC(=O)NC3=O)cc2)nc1` (centres unmarked) [M-IV], the “bound to serum albumin” value in data set [2] is recorded as over 98%. Further, the pharmacological activity result in data set [3] is “pharmacologically active”.

Take `CN(C)C(=N)N=C(N)N` [metformin, Metformin]: the “patients' weight change” value in [4] is given as “increased”. In addition, the reduction in triglycerides result in data set [5] is “no significant reduction”. In the data set with lipid metabolism, the “total cholesterol, LDL cholesterol and triglyceride levels” value was “reduces”. Moreover, in data set [6] (dose of 850 mg, with food), the “increase of Tmax by food” value is 0.583 h. In data set [6] (human, in vivo, po), the Tmax is 2.5 h, the maximum plasma concentration was at most 4 µg/mL, the “non-absorbed fraction recovered in the feces” value is listed as 20-30% and the steady-state plasma concentrations result is “less than 1 µg/ml”. Moreover, in data set [6] (human, plasma, po), the maximum plasma concentration is 1.5 µg/mL. Besides, in data set [6] (in vivo), the “plasma concentrations in cases of lactacidosis” value is listed as “exceed 5 µg/ml”.

On to `CCc1ccc(CCOc2ccc(CC3SC(=O)NC3=O)cc2)nc1` (centres unmarked) [pioglitazone, Pioglitazone], for which the “inhibition of P-450 activity” value in the data set on P-450 activity was “did not inhibit”. Besides, the “bound to serum proteins” value in data set [7] is given as over 99%. In addition, the “apparent clearance, CL/F” value in data set [8] (calculated) is 5 to 7 L/h. Besides, the mean serum half-live in data set [8] (human, serum) was 3 to 7 h. Besides, in data set [8] (in vivo), the renal elimination entry is listed as “negligible” and the “time to reach steady-state serum concentrations” value is at most 7 days. In [8] (oral administration at fasting), the “time to maximum concentrations” value was at most 2 h and the “time until measurable in serum” value was at most 30 min.

The values above are taken from patent EP1964562A1, “PHARMACEUTICAL COMPOSITIONS CONTAINING DERIVATIVE SUBSTANCES OF THIAZOLIDINEDIONES COMBINED WITH A BIGUANIDE FOR USE IN TYPE 2 DIABETES MELLITUS” (priority 2005, dated 2007).
